# From US7939526B2, “Sulfone substituted imidazo ring ethers” (3M Innovative Properties Company, priority 2003, dated 2011)
row,melting point [°C],Structure (SMILES)
1,195 to 197,"COCc1nc2c(N)nc3c(c2n1CC(C)(C)OCCS(C)(=O)=O)CCCC3 [Example 39, 2-(Methoxymethyl)-1-{2-methyl-2-[2-(methylsulfonyl)ethoxy]propyl}-6,7,8,9-tetrahydro-1H-imidazo[4,5-c]quinolin-4-amine]"
2,189 to 191,"CCOCc1nc2c(N)nc3cccnc3c2n1CC(C)(C)OCCS(C)(=O)=O [Example 40, 2-Ethoxymethyl-1-{2-[2-(methylsulfonyl)ethoxy]-2-methylpropyl}-1H-imidazo[4,5-c][1,5]naphthyridin-4-amine]"
